What was measured:
A549 cells = experiment: Measurement of PGE2-increasing activity in A549 cells (IL-1β stimulated, PGE2 quantified in supernatant); assay type: cell-based; conditions: Homo sapiens, 24 h; concentration of 1 µM of each compound; IL-1β treated A549 cells; read-out: Increased PGE2 production in A549 cells
Method: A549 cells were prepared at a cell number of 1 x 10^5/mL in F12K medium containing 10% FBS (Fetal Bovine Serum), and 2 x 10^4/200 µL was added to each well of a 96-well cell culture plate, and then cultured in an incubator with 5% CO2 at 37 °C for 24 hours. After the culture was complete and all F12K medium was removed, all wells were washed once with 100 µL of PBS, and treated with 160 µL of serum-free F12K medium. Then, 20 µL of IL-1β diluted 10-fold to a concentration of 1 ng/mL in serum-free F12K medium was treated to wells to be treated with IL-1β, and 20 µL of serum-free F12K medium was treated to wells not treated with IL-1β. For the wells to be treated with the compound, 20 µL of the compound dissolved in 100% DMSO was diluted to a concentration 10 times of the desired compound concentration in serum-free F12K medium so that the final DMSO concentration treated to the cells was 0.1%, and for the wells not to be treated with the compound, 20 µL of DMSO diluted in serum-free F12K medium so that the final DMSO concentration treated to the cells was 0.1% was treated. In order to confirm the increase or decrease in the secretion amount of PGE2 in the supernatant collected after culturing for 24 hours in an incubator with 5% CO2 at 37 °C, PGE2 was quantified using the Prostaglandin E2 Parameter (SKGE004B).

human 15-PGDH = target: T1, human 15-PGDH (Homo sapiens, UniProt P15428); experiment: Evaluation of 15-PGDH inhibitory activity (fluorescence enzyme assay, NAD+/PGE2); assay type: biochemical; conditions: human 15-PGDH enzyme, fluorescence Vmax
T1 construct: purchased R&D System 5660-DH
T1 sequence (P15428 1-266): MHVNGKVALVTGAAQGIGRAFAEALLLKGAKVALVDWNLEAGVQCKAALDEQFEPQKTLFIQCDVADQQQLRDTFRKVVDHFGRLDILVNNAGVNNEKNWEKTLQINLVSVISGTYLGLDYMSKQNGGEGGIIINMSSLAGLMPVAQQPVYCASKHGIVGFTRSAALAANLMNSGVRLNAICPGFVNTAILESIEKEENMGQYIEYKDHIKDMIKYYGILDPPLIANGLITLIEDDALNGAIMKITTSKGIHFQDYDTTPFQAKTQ
Method: 15-PGDH inhibition activity of Example compounds was measured as follows. 6.7 ng of human 15-PGDH (R&D System# 5660-DH) enzyme (10 µL) was added to a black 96 well plate, 60 µL of buffer (50 mM Tris-HCl, pH 7.5, 0.01% Tween 20) was added, and 10 µL of 200 µM β-Nicotinamide adenine dinucleotide sodium salt (Sigma, Cat# N0632-5G) was added. 10 µL of (10x) compound solution in DMSO was added and reacted for 10 minutes at room temperature.

Structure (SMILES)	fold induction at 1 µM (A549 cells)	IC50 (human 15-PGDH)
CN1Cc2ccc(-c3cccc4c(C(=O)N5CCCCC5)cnn34)cc2C1=O [Example 141, 2-methyl-6-(3-(piperidine-1-carbonyl)pyrazolo[1,5-a]pyridin-7-yl)isoindolin-1-one]	> 1.5	≤ 100 nM
O=C(c1cnn2c(-c3cccc(-c4noc(=O)[nH]4)c3)cccc12)N1CCCCC1 [Example 115, 3-(3-(3-(piperidine-1-carbonyl)pyrazolo[1,5-a]pyridin-7-yl)phenyl)-1,2,4-oxadiazol-5(4H)-one]	> 1.5	≤ 100 nM
O=C(Nc1ccncc1)c1ccc(-c2cccc3c(C(=O)N4CCCCC4)cnn23)cc1 [Example 72, 4-(3-(piperidine-1-carbonyl)pyrazolo[1,5-a]pyridin-7-yl)-N-(pyridin-4-yl)benzamide]	> 1.5	≤ 100 nM
Cc1nc(-c2ccc(-c3cccc4c(C(=O)N5CCCCC5)cnn34)cc2)no1 [Example 118, (7-(4-(5-methyl-1,2,4-oxadiazol-3-yl)phenyl)pyrazolo[1,5-a]pyridin-3-yl)(piperidin-1-yl)methanone]	> 1.5	≤ 100 nM
O=C(c1cnn2c(NCCc3ccncc3)cccc12)N1CCCCC1 [Example 149, piperidin-1-yl(7-((2-(pyridin-4-yl)ethyl)amino)pyrazolo[1,5-a]pyridin-3-yl)methanone]	> 1.5	≤ 100 nM
O=C(Nc1cncc(-c2cccc3c(C(=O)N4CCCCC4)cnn23)c1)c1cncnc1 [Example 334, N-(5-(3-(piperidine-1-carbonyl)pyrazolo[1,5-a]pyridin-7-yl)pyridin-3-yl)pyrimidine-5-carboxamide]	> 1.5	≤ 100 nM
O=C1NCc2ccc(Nc3cccc4c(C(=O)N5CCCCC5)cnn34)cc21 [Example 212, 6-[[3-(piperidine-1-carbonyl)pyrazolo[1,5-a]pyridin-7-yl]amino]isoindolin-1-one]	> 1.5	≤ 100 nM
Cc1nc(-c2c(F)cc(-c3cccc4c(C(=O)N5CCCCC5)cnn34)cc2F)no1 [Example 328, (7-(3,5-difluoro-4-(5-methyl-1,2,4-oxadiazol-3-yl)phenyl)pyrazolo[1,5-a]pyridin-3-yl)(piperidin-1-yl)methanone]	> 1.5	≤ 100 nM
O=C(c1ccc(-c2cccc3c(C(=O)N4CCCCC4)cnn23)cn1)N1CC(F)C1 [Example 213, (3-fluoroazetidin-1-yl)-[5-[3-(piperidine-1-carbonyl)pyrazolo[1,5-a]pyridin-7-yl]-2-pyridyl]methanone]	> 1.5	≤ 100 nM
Cn1nccc1-c1ccc(-c2cccc3c(C(=O)N4CCCCC4)cnn23)cc1 [Example 300, [7-[4-(2-methylpyrazol-3-yl)phenyl]pyrazolo[1,5-a]pyridin-3-yl]-(1-piperidyl)methanone]	< 1.5	≤ 100 nM
N#CCNC(=O)c1ccc(-c2cccc3c(C(=O)N4CCCCC4)cnn23)cc1 [Example 70, N-(cyanomethyl)-4-(3-(piperidine-1-carbonyl)pyrazolo[1,5-a]pyridin-7-yl)benzamide]	> 1.5	≤ 100 nM
N#CCCNC(=O)c1ccc(-c2cccc3c(C(=O)N4CCCCC4)cnn23)o1 [Example 90, N-(2-cyanoethyl)-5-(3-(piperidine-1-carbonyl)pyrazolo[1,5-a]pyridin-7-yl)furan-2-carboxamide]	> 1.5	≤ 100 nM
O=C(c1cnn2c(-c3ccc(N(Cc4ccccc4[N+](=O)[O-])C(=O)c4cccnc4)cc3)cccc12)N1CCCCC1 [Example 340, N-(2-nitrobenzyl)-N-(4-(3-(piperidine-1-carbonyl)pyrazolo|[1,5-a]pyridin-7-yl)phenyl)nicotinamide]	> 1.5	≤ 100 nM
N#Cc1ccc(-c2cccc3c(C(=O)N4CCCCC4)cnn23)cn1 [Example 18, 5-(3-(piperidine-1-carbonyl)pyrazolo[1,5-a]pyridin-7-yl)picolinonitrile]	> 1.5	≤ 100 nM

From patent EP4653437A2 (Innovo Therapeutics Inc., priority 2023, dated 2024)
